The target in one experiment is farnesyl protein transferase. The experiment can be described thus: In vitro enzyme assay: inhibition of farnesyl protein transferase (FPT), [3H]farnesyl transfer to Ras-CVLS. The experiment is classed as biochemical, rat (brain); human (expressed in E. coli).
Settings: not given
From the text: 1. In vitro enzyme assays: Inhibition of famesyl protein transferase and geranylgeranyl protein transferase.
Farnesyl protein transferase (FPT) was partially purified from rat brain by ammonium sulfate fractionation followed by Q-Sepharose (Pharmacia, Inc.) anion exchange chromatography essentially as described by Yokoyama et al (Yokoyama, K., et al., (1991), A protein geranylgeranyltransferase from bovine brain: Implications for protein prenylation specificity, Proc. Natl. Acad. Sci USA 88: 5302-5306, the disclosure of which is incorporated herein by reference thereto). Human famesyl protein transferase was also expressed in E. coli, using cDNA clones encoding both the a and b subunits. The methods used were similar to those published (Omer, C. et al., (1993), Characterization of recombinant human famesyl protein transferase: Cloning, expression, farnesyl diphosphate binding, and functional homology with yeast prenyl-protein transferases, Biochemistry 32:5167-5176). Human famesyl protein transferase was partially-purified from the soluble protein fraction of E. coli as described above. […] Two forms of val^12 -Ha-Ras protein were prepared as substrates for these enzymes, differing in their carboxy terminal sequence. One form terminated in cysteine-valine-leucine-serine (Ras-CVLS) the other in cystein-valine-leucine-leucine (Ras-CVLL). Ras-CVLS is a substrate for the famesyl protein transferase while Ras-CVLL is a substrate for geranylgeranyl protein transferase I. The cDNAs encoding these proteins were constructed so that the proteins contain an amino-terminal extension of 6 histidine residues. Both proteins were expressed in Escherichia coli and purified using metal chelate affinity chromatography. The radiolabelled isoprenyl pyrophosphate substrates, [^3 H]farnesyl pyrophosphate and [^3 H]geranylgeranyl pyrophosphate, were purchased from DuPon/New England Nuclear.
Several methods for measuring farnesyl protein transferase activity have been described (Reiss et al 1990, Cell 62: 81; Schaber et al 1990, J. Biol. Chem. 265: 14701; Manne et al 1990, PNAS 87: 7541; and Barbacid & Manne 1993, U.S. Pat. No. 5,185,248). […] The reaction was allowed to proceed for 30 minutes at room temperature and then stopped with 0.5 ml of 4% sodium dodecyl sulfate (SDS) followed by 0.5 ml of cold 30% TCA. Samples were allowed to sit on ice for 45 minutes and precipitated Ras protein was then collected on GF/C filter paper mats using a Brandel cell harvester. Filter mats were washed once with 6% TCA, 2% SDS and radioactivity was measured in a Wallac 1204 Betaplate BS liquid scintillation counter. Percent inhibition was calculated relative to the DMSO vehicle control.
The IC50 is the concentration needed to halve the response being measured. Read a low IC50 as inhibition by little substance. In the case of `CN(C)CC(=O)N1CCC(C2c3ncc(Br)cc3CCc3cc(Cl)cc(Cl)c32)CC1` (single isomer, unassigned) [Example 4], the IC50 was 380 nM. In turn, `CN(C)CCC(=O)N1CCC(C2c3ncc(Br)cc3CCc3cc(Cl)cc(Cl)c32)CC1` (single isomer, unassigned) [Example 5] showed an IC50 of 56 nM.

`CN(C)CCCCC(=O)N1CCC(C2c3ncc(Br)cc3CCc3cc(Cl)cc(Cl)c32)CC1` (single isomer, unassigned) [Example 7] yielded a half-maximal inhibitory concentration (IC50) of 22 nM.

On to `CCN(CC)CCC(=O)N1CCC(C2c3ncc(Br)cc3CCc3cc(Cl)cc(Cl)c32)CC1` (single isomer, unassigned) [Example 8], for which the half-maximal inhibitory concentration (IC50) worked out at 14 nM.

On to `O=C(CCN1CCCCC1)N1CCC(C2c3ncc(Br)cc3CCc3cc(Cl)cc(Cl)c32)CC1` (single isomer, unassigned) [Example 9], for which the IC50 was found to be 6 nM. Still for that read-out and setting: under `O=C(CN1CCCC1=O)N1CCC(C2c3ncc(Br)cc3CCc3cc(Cl)cc(Cl)c32)CC1` (single isomer, unassigned) [Example 10] stands 19 nM; under `O=C(CCN1C(=O)CCC1=O)N1CCC(C2c3ncc(Br)cc3CCc3cc(Cl)cc(Cl)c32)CC1` (single isomer, unassigned) [Example 11], 76 nM; under `NC(=O)CCC(=O)N1CCC(C2c3ncc(Br)cc3CCc3cc(Cl)cc(Cl)c32)CC1` (single isomer, unassigned) [Example 12], 61 nM.

For `CN(C)C(=O)CCC(=O)N1CCC(C2c3ncc(Br)cc3CCc3cc(Cl)cc(Cl)c32)CC1` (single isomer, unassigned) [Example 13], half-maximal inhibition (IC50) required 15 nM.

On to `O=C(CCC(=O)N1CCC(C2c3ncc(Br)cc3CCc3cc(Cl)cc(Cl)c32)CC1)N1CCCC1` (single isomer, unassigned) [Example 14], for which the half-inhibitory concentration (IC50) was determined as 16 nM. `CC(=O)NCCCC(=O)N1CCC(C2c3ncc(Br)cc3CCc3cc(Cl)cc(Cl)c32)CC1` (single isomer, unassigned) [Example 15] yielded a concentration for half-maximal inhibition (IC50) of 63 nM. The same measure, in the same setting: under `O=C(NCCCC(=O)N1CCC(C2c3ncc(Br)cc3CCc3cc(Cl)cc(Cl)c32)CC1)Nc1ccccc1` (single isomer, unassigned) [Example 16] stands above 100 nM.

`O=C(CCCCCN1C(=O)C=CC1=O)N1CCC(C2c3ncc(Br)cc3CCc3cc(Cl)cc(Cl)c32)CC1` (single isomer, unassigned) [Example 23] registered an IC50 of 620 nM. As to `NC(=O)N1CCC(C2c3ncc(Br)cc3CCc3cc(Cl)cc(Cl)c32)CC1` (single isomer, unassigned; (+)) [Example 1, (+)-4-(3-BROMO-8,10-DICHLORO-6,11-DIHYDRO-5H-BENZO[5,6]-CYCLOHEPTA[1 ,2-b]PYRIDIN-11-YL)-1-PIPERIDINE CARBOXAMIDE], the IC50 amounted to 390 nM. Same read-out and setting: next, `CN(C)CCCC(=O)N1CCC(C2c3ncc(Br)cc3CCc3cc(Cl)cc(Br)c32)CC1` (single isomer, unassigned; (+)) [Example 2, (+)-4-(3,10-DIBROMO-8-CHLORO-6,11-DIHYDRO-5H-BENZO[5,6]-CYCLO-HEPTA[1,2-b]PYRIDIN-11-YL)-1-[4-(DIMETHYLAMINO)-1-OXOBUTYL]PIPERIDINE]: 4 nM.

`NCC(=O)N1CCC(C2c3ncc(Br)cc3CCc3cc(Cl)cc(Cl)c32)CC1` (single isomer, unassigned; (+)) [Example 3, (+)-1-(AMINOACETYL)-4-(3-BROMO-8,10-DICHLORO-6,11-DIHYDRO-5H-BENZO[5,6]CYCLO-HEPTA[1,2-b]PYRIDIN-11-YL) PIPERIDINE] came in with an IC50 of 1100 nM. On the same count and under the same terms, under `NCCCC(=O)N1CCC(C2c3ncc(Br)cc3CCc3cc(Cl)cc(Cl)c32)CC1` (single isomer, unassigned; (+)) [Example 27, (+)-1-(4-AMINO-1-OXOBUTYL)-4-(3-BROMO-8,10-DICHLORO-6,11-DIHYDRO-5H-BENZO[5,6]CYCLO-HEPTA[1,2-b]PYRIDIN-11-YL) PIPERIDINE] stands 130 nM. `NC(=O)NCCCC(=O)N1CCC(C2c3ncc(Br)cc3CCc3cc(Cl)cc(Cl)c32)CC1` (single isomer, unassigned; (+)) [Example 31] had a half-maximal inhibitory concentration (IC50) of 58 nM. The same measure, in the same setting: under `O=C(CCCC(=O)N1CCC(C2c3ncc(Br)cc3CCc3cc(Cl)cc(Cl)c32)CC1)Nc1cccnc1` (stereo not shown) [Example 17] stands around 100 nM. Still for that read-out and setting: under `CC(C)(C)OC(=O)NCC(=O)N1CCC(C2c3ncc(Br)cc3CCc3cc(Cl)cc(Cl)c32)CC1` (stereo not shown) [Example 26] stands 540 nM; under `CCOC(=O)CC(=O)N1CCC([C@H]2c3ncc(Br)cc3CCc3cc(Cl)cc(Br)c32)CC1` [Example 45, (+)-ETHYL 4-(3,10-DIBROMO-8-CHLORO-6,11-DIHYDRO-5H-BENZO[5,6]CYCLO-HEPTA[1,2-b]PYRIDIN-11(R)-YL)-BETA-OXO-1-PIPERIDININE PROPANOATE], 28 nM; under `O=C(O)CC(=O)N1CCC([C@H]2c3ncc(Br)cc3CCc3cc(Cl)cc(Br)c32)CC1` [Example 46, (+)-SODIUM 4-(3,10-DIBROMO-8-CHLORO-6,11-DIHYDRO-5H-BENZO[5,6]CYCLO-HEPTA[1,2-b]PYRIDIN-11(R)-YL)-BETA-OXO-1-PIPERIDININE PROPANOATE], 78 nM. `NC(=O)CC(=O)N1CCC([C@H]2c3ncc(Br)cc3CCc3cc(Cl)cc(Br)c32)CC1` [Example 47, 4-(3,10-DIBROMO-8-CHLORO-6,11-DIHYDRO-5H-BENZO[5,6]CYCLO-HEPTA[1,2-b]PYRIDIN-11(R)-YL)-BETA-OXO -1-PIPERIDININE PROPANAMIDE] had a half-maximal inhibitory concentration (IC50) of 68 nM. For the compound `COC(=O)CCC(=O)N1CCC([C@H]2c3ncc(Br)cc3CCc3cc(Cl)cc(Br)c32)CC1` [Example 48, (+)-METHYL 4-(3,10-DIBROMO-8-CHLORO-6,11-DIHYDRO-5H-BENZO[5,6]CYCLO-HEPTA[1,2-b]PYRIDIN-11(R)-YL)-GAMMA-OXO -1-PIPERIDININE BUTANOATE], inhibition was half-maximal at 9 nM (IC50).

Turning to `O=C(O)CCC(=O)N1CCC([C@H]2c3ncc(Br)cc3CCc3cc(Cl)cc(Br)c32)CC1` [Example 49, (+)-SODIUM 4-(3,10-DIBROMO-B-CHLORO-6,11-DIHYDRO-5H-BENZO[5,6]CYCLO-HEPTA[1,2-b]PYRIDIN-11(R)-YL)-GAMMA-OXO-1-PIPERIDININE BUTANOATE], half-maximal inhibition (IC50) required 270 nM.

The experiment is the same for the next values; noted with them: @ 0.06 μg/μL.
`O=C(CCCC(=O)N1CCC(C2c3ncc(Br)cc3CCc3cc(Cl)cc(Cl)c32)CC1)Nc1ccccc1` (single isomer, unassigned) [Example 19] yielded an FPT inhibition of 21%. In the case of `O=C(CCCC(=O)N1CCC(C2c3ncc(Br)cc3CCc3cc(Cl)cc(Cl)c32)CC1)NCc1ccccc1` (single isomer, unassigned) [Example 21], the FPT inhibition worked out at 35%. `O=C(NCCCC(=O)N1CCC(C2c3ncc(Br)cc3CCc3cc(Cl)cc(Cl)c32)CC1)c1ccncc1` (single isomer, unassigned) [Example 24]: the FPT inhibition turned out to be 20%.

In turn, `O=C(NCCCCC(=O)N1CCC(C2c3ncc(Br)cc3CCc3cc(Cl)cc(Cl)c32)CC1)c1ccccc1` (stereo not shown) [Example 22] registered an FPT inhibition of 41%.

The same experiment, now with this note: @ 88 nM.
Turning to `O=C(CCCN1C(=O)c2ccccc2C1=O)N1CCC(C2c3ncc(Br)cc3CCc3cc(Cl)cc(Br)c32)CC1` (single isomer, unassigned; (+)) [Example 32, (+)-4-(3,10-DIBROMO-8-CHLORO-6,11-DIHYDRO-5H-BENZO[5,6]CYCLO-HEPTA[1,2-b]PYRIDIN-11-YL)-1-[4-(1,3-DIHYDRO-1,3-DIOXO-2H-ISOINDOL-2-YL)-1-OXOBUTYL]PIPERIDINE], the FPT inhibition is recorded as 12%.

Staying with this experiment, now noted: @ 92 nM.
On to `O=C(CCCC(=O)N1CCC(C2c3ncc(Br)cc3CCc3cc(Cl)cc(Cl)c32)CC1)Nc1ccc(Cl)cc1` (single isomer, unassigned) [Example 20], for which the FPT inhibition came to 0%.

The experiment is the same for the next values; noted with them: @ 93 nM.
Consider `O=C(NCCCC(=O)N1CCC(C2c3ncc(Br)cc3CCc3cc(Cl)cc(Cl)c32)CC1)c1cccnc1` (single isomer, unassigned) [Example 18], for which the FPT inhibition came out at 9%.

The same experiment, now with this note: @ 93.4 nM.
With `O=C(CCCN1C(=O)c2ccncc2C1=O)N1CCC(C2c3ncc(Br)cc3CCc3cc(Cl)cc(Cl)c32)CC1` (stereo not shown) [Example 33, 4-(8,10-DICHLORO-3-BROMO-6,11-DIHYDRO-5H-BENZO[5,6]CYCLO-HEPTA[1,2-b]PYRIDIN-11-YL)-1-[4-(1,3-DIHYDRO-1,3-DIOXO-2H-PYRROLO-[3,4c]-PYRIDINE-2-YL)-1-OXOBUTYL]PIPERIDINE], the FPT inhibition is reported as 38.7%.

Staying with this experiment, now noted: @ 330 nM.
For `CC(C)(C)OC(=O)NCCCC(=O)N1CCC(C2c3ncc(Br)cc3CCc3cc(Cl)cc(Cl)c32)CC1` (stereo not shown) [Example 25], the FPT inhibition was determined as 47%.

The values are drawn from patent US6277854A, “Tricyclic antitumor farnesyl protein transferase inhibitors” (Schering Corporation, priority 1999, dated 2001).
